Laboratory results published in patent US6180677A, “Tyrosine-derived compounds as calcium channel antagonists” (Warner-Lambert Company, priority 1999, dated 2001).
Counter-ions that a name gives are not always drawn.

How the values were obtained:
N-type Ca^2+ channel = target: T1, N-type Ca^2+ channel (Homo sapiens, UniProt Q00975); assay: N-type Ca2+ channel blocking potency in IMR-32 cells using the fluorescent Ca2+ indicator Indo-1; format: cell-based; conditions: for IC50: K+-stimulated Ca2+ flux, 5 μM nitrendipine to block L-type channels, read-out: IMR32 IC50; for IMR32 % @ 1: at 1 μM; for IMR32 % @ 1 / IMR32 % @ 10: 5 μM nitrendipine; for IMR32 % @ 10: at 10 μM
T1 construct: host or cells: IMR-32 human neuroblastoma cells, differentiated with dibutyryl cAMP and bromodeoxyuridine
Experimental: Measurement of N-type Ca^2+ Channel Blocking Potencies of Compounds in IMR-32 Cells Using the Fluorescent Ca^2+ Indicator Indo-1
IMR-32 cells are a human tumoral cell line of neural origin. […] Calcium flux into these cells may be induced by stimulation with elevated potassium concentrations. The L-channel component of calcium flux may be blocked by adding 5 μM nitrendipine. The remaining component of calcium entry into the IMR-32 cells is due to calcium flux through N-type calcium channels. Intracellular calcium concentrations are measured using the fluorescent calcium indicator Indo-1. The effect of drug concentration on calcium uptake is studied.
The IMR-32 cell line was obtained from the American Type Culture Collection (Rockville, Md.). Cells were grown in Eagle's Minimum Essential Medium with Earle's salts supplemented with 10% fetal bovine serum, 2 mM L-Gln and antibiotic/antimicotic mixture (Gibco). At approximately 80% confluency, differentiation was induced by the addition of 1 mM dibutyryl cAMP and 2.5 μM bromodeoxyuridine to the medium. After 7 to 13 days of differentiation, cells were detached using 0.5 mM EDTA and loaded with 5 μM Indo-1 acetoxymethyl ester (Molecular Probes, Eugene, Oreg.) at […] for 45 minutes. Loaded cells were washed twice, resuspended (~10^7 cells/mL) in assay buffer (10 mM HEPES/Tris pH 7.4 in Hank's Balanced Salt Solution without bicarbonate or phenol red containing 0.5% bovine serum albumin) and kept on ice until use. Fluorescence measurements were carried out in a Photon Technology International (PTI, South Brunswick, N.J.) Model RF-F3004 spectrofluorometer with dual emission monochromators using excitation at 350 nm and emission at 400 and 490 nm. The instrument was equipped with a thermostated cuvette holder with stirring capabilities, as well as with a computer-controlled pump that allowed for reagent addition during measurement. Instrument control and data collection was done by PTI's OSCAR software running on an IBM compatible computer. Different concentrations of the test compounds (60 μL in dimethyl sulfoxide) were added to 5.94 mL of assay buffer containing approximately 3×10^6 loaded cells, and 5 μM Nitrendipine (in 30 μL EtOH) to block L-type Ca^2+ channels. Samples were incubated for 10 minutes at 30° C. and then aliquoted into three 10×10 mm disposable acrylic cuvettes. Emission signals at 400 and 490 nm were acquired from each cuvette at 30° C. for 50 seconds. At 20 seconds after the start of reading, cells were depolarized by the addition of 160 μL of stimulation solution (1 M KCl, 68 mM CaCl2) to the cuvette via the computer-controlled pump. Ratio of dual emission signals (400 nm/490 nm), which is proportional to intracellular Ca^2+ concentration, was plotted against time, and the difference between maximal response after stimulation and basal value (before stimulation) was determined. Values obtained in this way were plotted as a function of drug concentration. IC50 values of test compounds were calculated by fitting a four-parameter logistic function to the data using the least squared method.

DBA/2 mice = assay: Audiogenic seizure model in DBA/2 mice; format: in vivo; conditions: protected/tested
Experimental: Audiogenic Seizure Model in DBA/2 Mice
In Vivo Biological Protocol
A compound of the present invention was dissolved in water using 10% (weight/volume) Emulphor (GAF Corp., Wayne, N.J.) surfactant. Substances were administered by intravenous injection into the retro-orbital venous sinus. All testing was performed 15 minutes or 45 minutes after drug injection. All the male mice, 3 to 4 weeks old, were obtained from Jackson Laboratories, Bar Harbour, Me. Immediately before anticonvulsant testing, mice were placed upon a wire mesh, 4 inches square suspended from a steel rod. […] Any mouse falling from the wire mesh was scored as ataxic.
Mice were placed into an enclosed acrylic plastic chamber (21 cm height, approximately 30 cm diameter) with a high-frequency speaker (4 cm diameter) in the center of the top lid. An audio signal generator (Protek model B-810) was used to produce a continuous sinusoidal tone that was swept linearly in frequency between 8 kHz and 16 kHz once each 10 msec. The average sound pressure level (SPL) during stimulation was approximately 100 dB at the floor of the chamber. Mice were placed within the chamber and allowed to acclimatize for 1 minute. DBA/2 mice in the vehicle-treated group responded to the sound stimulus (applied until tonic extension occurred, or for a maximum of 60 seconds) with a characteristic seizure sequence consisting of wild running followed by clonic seizures, and later by tonic extension, and finally by respiratory arrest and death in 80% or more of the mice. In vehicle-treated mice, the entire sequence of seizures to respiratory arrest lasts approximately 15 to 20 seconds.
The incidence of all the seizure phases in the drug-treated and vehicle-treated mice was recorded, and the occurrence of tonic seizures were used for calculating anticonvulsant ED50 values by probit analysis. Mice were used only once for testing at each time and dose point.

[1] = 30 mg/kg IV, 15 minutes post treatment
[2] = 30 mg/kg IV, 45 minutes post treatment
[3] = 10 mg/kg IV, 15 minutes post treatment

T1 sequence (Q00975 whole entry): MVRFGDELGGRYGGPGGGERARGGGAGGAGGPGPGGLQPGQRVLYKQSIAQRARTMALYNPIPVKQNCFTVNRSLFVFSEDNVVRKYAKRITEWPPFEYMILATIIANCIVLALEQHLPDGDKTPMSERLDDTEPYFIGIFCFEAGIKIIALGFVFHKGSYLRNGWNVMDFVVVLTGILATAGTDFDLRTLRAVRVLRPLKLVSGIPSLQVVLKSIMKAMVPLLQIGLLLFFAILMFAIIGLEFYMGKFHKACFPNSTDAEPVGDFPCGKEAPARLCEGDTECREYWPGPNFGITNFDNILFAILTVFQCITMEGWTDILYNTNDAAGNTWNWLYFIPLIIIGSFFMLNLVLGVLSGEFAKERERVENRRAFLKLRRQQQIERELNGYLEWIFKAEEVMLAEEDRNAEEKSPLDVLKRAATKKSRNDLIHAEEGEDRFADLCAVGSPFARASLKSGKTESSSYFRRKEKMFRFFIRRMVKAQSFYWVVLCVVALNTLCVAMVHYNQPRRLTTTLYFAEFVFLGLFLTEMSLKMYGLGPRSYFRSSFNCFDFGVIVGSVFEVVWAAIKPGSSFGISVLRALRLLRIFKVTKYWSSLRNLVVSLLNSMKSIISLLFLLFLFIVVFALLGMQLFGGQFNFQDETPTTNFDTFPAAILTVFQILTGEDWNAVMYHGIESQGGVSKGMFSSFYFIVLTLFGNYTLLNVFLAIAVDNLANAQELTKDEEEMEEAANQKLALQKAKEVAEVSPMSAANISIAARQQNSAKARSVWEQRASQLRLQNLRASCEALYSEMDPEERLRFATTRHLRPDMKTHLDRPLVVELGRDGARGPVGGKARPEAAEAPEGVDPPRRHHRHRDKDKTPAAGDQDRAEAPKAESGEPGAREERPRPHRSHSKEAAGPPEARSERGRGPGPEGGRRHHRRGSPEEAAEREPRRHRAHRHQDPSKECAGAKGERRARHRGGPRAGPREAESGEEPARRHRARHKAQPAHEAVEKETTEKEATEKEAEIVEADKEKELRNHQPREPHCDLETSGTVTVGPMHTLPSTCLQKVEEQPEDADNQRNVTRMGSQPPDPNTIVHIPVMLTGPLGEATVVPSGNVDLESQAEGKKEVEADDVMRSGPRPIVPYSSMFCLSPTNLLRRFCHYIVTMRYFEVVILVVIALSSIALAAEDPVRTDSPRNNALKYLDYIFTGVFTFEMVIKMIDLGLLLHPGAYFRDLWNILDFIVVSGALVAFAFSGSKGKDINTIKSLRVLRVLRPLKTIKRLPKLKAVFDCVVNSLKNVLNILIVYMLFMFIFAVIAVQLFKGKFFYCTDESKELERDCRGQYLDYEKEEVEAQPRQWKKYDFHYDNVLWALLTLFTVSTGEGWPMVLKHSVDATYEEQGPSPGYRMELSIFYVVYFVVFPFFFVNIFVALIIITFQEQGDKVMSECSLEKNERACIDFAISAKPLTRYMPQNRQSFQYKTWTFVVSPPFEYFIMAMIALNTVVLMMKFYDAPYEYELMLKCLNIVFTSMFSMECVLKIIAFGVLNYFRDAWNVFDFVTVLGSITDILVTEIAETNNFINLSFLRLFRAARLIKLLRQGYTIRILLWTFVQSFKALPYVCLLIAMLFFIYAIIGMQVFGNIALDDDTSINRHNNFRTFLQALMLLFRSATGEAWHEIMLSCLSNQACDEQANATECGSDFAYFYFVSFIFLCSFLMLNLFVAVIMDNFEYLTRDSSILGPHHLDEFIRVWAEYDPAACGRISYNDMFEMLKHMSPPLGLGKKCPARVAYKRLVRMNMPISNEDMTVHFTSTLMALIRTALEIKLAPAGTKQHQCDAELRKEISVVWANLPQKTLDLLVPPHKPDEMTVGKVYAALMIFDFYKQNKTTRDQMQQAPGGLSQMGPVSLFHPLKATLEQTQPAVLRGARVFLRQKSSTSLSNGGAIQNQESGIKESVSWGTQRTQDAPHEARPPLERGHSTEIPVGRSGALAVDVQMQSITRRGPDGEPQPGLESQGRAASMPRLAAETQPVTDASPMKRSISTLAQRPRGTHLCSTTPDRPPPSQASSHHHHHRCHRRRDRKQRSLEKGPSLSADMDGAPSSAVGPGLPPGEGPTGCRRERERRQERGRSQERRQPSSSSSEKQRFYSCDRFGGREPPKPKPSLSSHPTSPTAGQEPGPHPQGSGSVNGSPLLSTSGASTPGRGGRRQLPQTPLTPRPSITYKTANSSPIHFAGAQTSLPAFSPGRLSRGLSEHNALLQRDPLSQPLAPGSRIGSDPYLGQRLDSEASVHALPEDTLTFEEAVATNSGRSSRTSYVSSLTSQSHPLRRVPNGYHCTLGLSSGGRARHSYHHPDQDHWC
T1 sequence (P54289 25-956 partner limits assumed): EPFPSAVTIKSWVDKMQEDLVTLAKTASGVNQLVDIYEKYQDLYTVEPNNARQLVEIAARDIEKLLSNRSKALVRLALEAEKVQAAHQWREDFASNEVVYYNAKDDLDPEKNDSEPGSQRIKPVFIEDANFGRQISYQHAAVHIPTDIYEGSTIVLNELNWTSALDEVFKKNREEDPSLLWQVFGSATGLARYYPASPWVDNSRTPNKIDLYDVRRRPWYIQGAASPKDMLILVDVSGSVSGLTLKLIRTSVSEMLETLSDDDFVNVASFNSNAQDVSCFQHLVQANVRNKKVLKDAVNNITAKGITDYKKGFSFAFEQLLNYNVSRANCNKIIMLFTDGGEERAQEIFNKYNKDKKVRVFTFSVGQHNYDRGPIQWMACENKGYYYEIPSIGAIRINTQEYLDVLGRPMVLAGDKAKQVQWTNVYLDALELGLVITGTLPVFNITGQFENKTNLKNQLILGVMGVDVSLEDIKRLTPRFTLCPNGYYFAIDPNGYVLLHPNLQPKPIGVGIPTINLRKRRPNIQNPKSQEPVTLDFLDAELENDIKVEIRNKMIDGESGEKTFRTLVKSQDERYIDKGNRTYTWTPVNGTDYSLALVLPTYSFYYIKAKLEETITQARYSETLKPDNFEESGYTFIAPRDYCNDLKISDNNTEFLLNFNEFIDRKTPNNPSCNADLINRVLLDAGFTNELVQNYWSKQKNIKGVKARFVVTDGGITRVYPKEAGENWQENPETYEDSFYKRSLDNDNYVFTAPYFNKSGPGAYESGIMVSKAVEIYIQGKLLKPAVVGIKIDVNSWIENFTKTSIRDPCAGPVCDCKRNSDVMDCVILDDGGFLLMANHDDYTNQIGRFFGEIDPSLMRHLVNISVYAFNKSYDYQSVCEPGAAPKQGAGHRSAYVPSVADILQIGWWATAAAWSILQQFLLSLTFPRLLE
T1 sequence (P54289 957-1103 partner limits assumed): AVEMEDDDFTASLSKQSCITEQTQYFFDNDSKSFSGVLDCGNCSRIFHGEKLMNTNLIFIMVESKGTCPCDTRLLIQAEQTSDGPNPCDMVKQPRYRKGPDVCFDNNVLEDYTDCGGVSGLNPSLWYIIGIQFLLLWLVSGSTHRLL
T1 sequence (P54284 whole entry partner): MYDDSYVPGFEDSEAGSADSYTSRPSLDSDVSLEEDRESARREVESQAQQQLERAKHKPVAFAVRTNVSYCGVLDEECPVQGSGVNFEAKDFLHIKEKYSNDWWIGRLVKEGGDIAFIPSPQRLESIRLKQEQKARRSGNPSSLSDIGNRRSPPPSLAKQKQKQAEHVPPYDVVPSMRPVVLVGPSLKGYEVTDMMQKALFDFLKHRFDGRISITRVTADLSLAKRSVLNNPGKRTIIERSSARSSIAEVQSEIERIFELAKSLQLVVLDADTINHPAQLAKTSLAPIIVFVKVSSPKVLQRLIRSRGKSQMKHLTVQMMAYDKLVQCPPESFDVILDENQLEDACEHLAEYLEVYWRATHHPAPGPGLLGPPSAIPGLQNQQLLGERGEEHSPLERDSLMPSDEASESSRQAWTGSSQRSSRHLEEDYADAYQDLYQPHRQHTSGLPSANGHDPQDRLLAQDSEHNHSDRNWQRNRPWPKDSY

CC(C)(C)c1ccc(CN(Cc2ccc(C(C)(C)C)cc2)[C@@H](Cc2ccc(OCc3ccccc3)cc2)C(=O)NCCN2CCCCC2)cc1 [Example 10, (S)-3-(4Benzyloxy-phenyl)-2-[bis-(4-tert-butyl-benzyl)-amino]-N-(2-piperidin-1-yl-ethyl)-propionamide]
IC50 (N-type Ca^2+ channel): 0.68 µM

CC(C)CCC(CCC(C)C)N[C@@H](Cc1ccc(OCc2ccccc2)cc1)C(=O)NC(C)(C)C.Cl [Example 4, (S)-3-(4-Benzyloxy-phenyl)-N-tert-butyl-2-[4-methyl-1-(3-methyl-butyl)-pentylamino]-propionamide monohydrochloride]
IMR32 % @ 1 (N-type Ca^2+ channel): 45% | IMR32 % @ 10 (N-type Ca^2+ channel): 102%

CC(C)(C)CCN[C@@H](Cc1ccc(OCc2ccccc2)cc1)C(=O)NC(C)(C)C [Example 7, (S)-3-(4-Benzyloxy-phenyl)-N-tert-butyl-2-(3,3-dimethyl-butylamino)-propionamide monohydrochloride]
IC50 (N-type Ca^2+ channel): 1.4 µM

CC(C)(C)c1ccc(CN(Cc2ccc(C(C)(C)C)cc2)C(CNCCN2CCCCC2)Cc2ccc(OCc3ccccc3)cc2)cc1 (centres unmarked) [Example 11, 3-(4-Benzyloxy-phenyl)-N^2, N^2-bis-(4-tert-butyl-benzyl)-N^1-(2-piperidin-1-yl-ethyl)-propane-1,2-diamine]
IC50 (N-type Ca^2+ channel): 0.17 µM

CC(C)(C)NCC(Cc1ccc(OCc2ccccc2)cc1)NCc1ccc(C(C)(C)C)cc1 (centres unmarked) [Example 14, 3-(4-Benzyloxy-phenyl)-N^1-tert-butyl-N^2-(4-tert-butyl-benzyl)-propane-1,2-diamine]
Number of Mice Protected from Tonic Convulsions (DBA/2 mice; [1]): 5/5 | Number of Mice Protected from Tonic Convulsions (DBA/2 mice; [2]): 4/5 | IC50 (N-type Ca^2+ channel): 0.45 µM

CC(C)CCN(CCC(C)(C)C)[C@@H](Cc1ccc(OCc2ccccc2)cc1)C(=O)NC(C)(C)C.Cl [Example 6, (S)-3-(4-Benzyloxy-phenyl)-N-tert-butyl-2-[(3,3-dimethyl-butyl)-(3-methyl-butyl)-amino]-propionamide monohydrochloride]
Number of Mice Protected from Tonic Convulsions (DBA/2 mice; [1]): 2/5 | Number of Mice Protected from Tonic Convulsions (DBA/2 mice; [2]): 4/5 | IC50 (N-type Ca^2+ channel): 0.44 µM

CC(C)(C)CCN(CCC(C)(C)C)[C@@H](Cc1ccc(OCc2ccccc2)cc1)C(=O)NC(C)(C)C [Example 8, (S)-3-(4-Benyloxy-phenyl)-2-[bis-(3,3-dimethyl-butyl)-amino]-N-tert-butyl-propionamide monohydrochloride]
IC50 (N-type Ca^2+ channel): 0.79 µM

CC(C)(C)c1ccc(CN[C@@H](Cc2ccc(OCc3ccccc3)cc2)C(=O)NCCN2CCCCC2)cc1 [Example 13, (S)-3-(4-Benzyloxy-phenyl)-2-(4-tert-butyl-benzylamino)-N-(2-piperidin-1-yl-ethyl)-propionamide]
Number of Mice Protected from Tonic Convulsions (DBA/2 mice; [3]): 0/5 | Number of Mice Protected from Tonic Convulsions (DBA/2 mice; 10 mg/kg IV, 45 minutes post treatment): 1/5 | Number of Mice Protected from Tonic Convulsions (DBA/2 mice; [1]): 4/5 | Number of Mice Protected from Tonic Convulsions (DBA/2 mice; [2]): 4/5 | IC50 (N-type Ca^2+ channel): 0.7 µM

CC(C)(C)NC(=O)[C@H](Cc1ccc(OCc2ccccc2)cc1)NC(=O)C1(c2ccccc2)CCCC1 [Example 1, (S)-1-Phenyl-cyclopentanecarboxylic acid [2-(4-benzyloxy-phenyl)-1-tert-butylcarbamoyl-ethyl]-amide]
IC50 (N-type Ca^2+ channel): 1.2 µM

CC(C)CCN(CC1CCCCC1)[C@@H](Cc1ccc(OCc2ccccc2)cc1)C(=O)NC(C)(C)C.Cl [Example 5, (S)-3-(4-Benzyloxy-phenyl)-N-tert-butyl-2-[cyclohexyl-methyl-(3-methyl-butyl)-amino]-propionamide monohydrochloride]
IMR32 % @ 1 (N-type Ca^2+ channel): 27% | IMR32 % @ 10 (N-type Ca^2+ channel): 61%

(S)-3-(4-Benzyloxy-phenyl)-N-tert-butyl-2-(3-methyl-butylamino)-propionamide monohydrochloride [Example 2]
IC50 (N-type Ca^2+ channel): 2 µM

CC(C)(C)NC(=O)[C@H](Cc1ccc(OCc2ccccc2)cc1)NCc1ccc(C(C)(C)C)cc1 [Example 9, (S)-3-(4-Benzyloxy-phenyl)-N-tert-butyl-2-(4-tert-butyl-benzylamino)-propionamide monohydrochloride]
IC50 (N-type Ca^2+ channel): 2 µM

CC(C)CCN(CCC(C)C)[C@@H](Cc1ccc(OCc2ccccc2)cc1)C(=O)NC(C)(C)C.Cl [Example 3, (S)-3-(4-Benzyloxy-phenyl)-2-[bis-(3-methyl-butyl)-amino]-N-tert-butyl-propionamide monohydrochloride]
Number of Mice Protected from Tonic Convulsions (DBA/2 mice; [1]): 4/5 | IC50 (N-type Ca^2+ channel): 0.76 µM

CC(C)(C)c1ccc(CNC(CNCCN2CCCCC2)Cc2ccc(OCc3ccccc3)cc2)cc1 (centres unmarked) [Example 12, 3-(4-Benzyloxy-phenyl)-N^2-(4-tert-butyl-benzyl)-N^1-(2-piperidin-1-yl-ethyl)-propane-1,2-diamine]
Number of Mice Protected from Tonic Convulsions (DBA/2 mice; [3]): 0/5 | IC50 (N-type Ca^2+ channel): 0.28 µM
